Reference: patent publication US8753652B2, “Pharmaceutical composition including a DHA ester to be administered parenterally” (Pierre Fabre Medicament, priority 2009, dated 2014)

Experiments:
[1] = Lipophilicity (Log P) of the nicotinic ester of DHA; format: physicochemical
Procedure: (§1) It is a very lipophilic compound (Log P approximately 7), wherein the solubility at equilibrium in water is <1 μg/ml. It is thus particularly difficult to formulate for parenteral administration.

[2] = Solubility at equilibrium in water; format: physicochemical; settings: thermodynamic from solid
Procedure: as §1

## CC/C=C\C/C=C\C/C=C\C/C=C\C/C=C\C/C=C\CCC(=O)OCc1cccnc1 [nicotinic ester of DHA, pyridin-3-ylmethyl-cis-4,7,10,13,16,19-docosahexaenoic acid]
[1]
  logP: ~7
[2]
  solubility: < 1 µg/mL
